Values after ≈ are worked out from the molar mass of the structure shown. Values belong to the compound of their own block, whether it stands above or below them. Active and inactive are the calls of the source. No cut-off for these calls is given here.
How the values were obtained:
[1] = Inhibition of DNA polymerase (unknown origin); parameters: species or system Homo sapiens
OVCAR-3 [2] = assay: Synergistic antiproliferative activity against human OVCAR-3 cells assessed as combination index at 50 uM incubated for 48 hrs in presence of 12.5 uM cisplatin by MTT assay; format: functional
[3] = Kinetic solubility of compound in neutral buffer at pH 7.4 at 250 uM measured after 24 hrs by UPLC/MS analysis; format: physicochemical; conditions: read-out: Kinetic_solubility
OVCAR-3 [4] = assay: Antiproliferative activity against human OVCAR-3 cells incubated for 48 hrs by MTT assay; format: functional; conditions: read-out: LD50 (the source's name)
[5] = Metabolic stability in mouse plasma assessed as half life at 2 uM incubated upto 120 mins by UPLC/MS analysis; format: ADME, cell-free
OVCAR-3 [6] = assay: Synergistic antiproliferative activity against human OVCAR-3 cells assessed as combination index at 75 uM incubated for 48 hrs in presence of 6 uM cisplatin by MTT assay; format: functional
A549 [7] = assay: Antiproliferative activity against human A549 cells incubated for 48 hrs by MTT assay; format: functional; conditions: read-out: LD50 (the source's name)
A-375 [8] = assay: Upregulation of phosphorylated gamma-H2AX level in human A375 cells incubated for 48 hrs by Western blot analysis; format: functional, cell-based; conditions: dose 30.0 µM
OVCAR-3 [9] = assay: Antiproliferative activity against human OVCAR-3 cells assessed as cisplatin LD50 at 10 uM incubated for 48 hrs in presence of cisplatin by MTT assay; format: functional; conditions: read-out: LD50 (the source's name)
OVCAR-3 [10] = assay: Antiproliferative activity against human OVCAR-3 cells assessed as cisplatin LD50 at 75 uM incubated for 48 hrs in presence of cisplatin by MTT assay; format: functional; conditions: read-out: LD50 (the source's name)
A-375 [11] = assay: Antiproliferative activity against human A-375 cells assessed as cisplatin LD50 at 35 uM incubated for 48 hrs in presence of cisplatin by MTT assay; format: functional; conditions: read-out: LD50 (the source's name)
A549 [12] = assay: Synergistic antiproliferative activity against human A549 cells assessed as combination index at 50 uM incubated for 48 hrs in presence of 6 uM cisplatin by MTT assay; format: functional
OVCAR-3 [13] = assay: Antiproliferative activity against human OVCAR-3 cells assessed as cisplatin LD50 at 50 uM incubated for 48 hrs in presence of cisplatin by MTT assay; format: functional; conditions: read-out: LD50 (the source's name)
A549 [14] = assay: Synergistic antiproliferative activity against human A549 cells assessed as combination index at 100 uM incubated for 48 hrs in presence of 12.5 uM cisplatin by MTT assay; format: functional
A-375 [15] = assay: Upregulation of phosphorylated gamma-H2AX level in human A375 cells at 30 uM incubated for 48 hrs by in presence of cisplatin by Western blot analysis; format: functional, cell-based
[16] = (§1) Antiproliferative activity against HEK293 cells incubated for 48 hrs by MTT assay; format: toxicity, cell-based; conditions: human, HEK293 cells, read-out: LD50
[17] = Upregulation of phosphorylated gamma-H2AX level in human A375 cells assessed as fold increase in activity at 20 uM incubated for 24 hrs by in presence of cisplatin by immunofluorescence based microscopy relative to cisplatin; format: functional, A-375
A549 [18] = assay: Synergistic antiproliferative activity against human A549 cells assessed as combination index at 50 uM incubated for 48 hrs in presence of 12.5 uM cisplatin by MTT assay; format: functional
A-375 [19] = assay: Synergistic antiproliferative activity against human A-375 cells assessed as combination index at 35 uM incubated for 48 hrs in presence of 12.5 uM cisplatin by MTT assay; format: functional
A-375 [20] = assay: Antiproliferative activity against human A-375 cells incubated for 48 hrs by MTT assay; format: functional; conditions: read-out: LD50 (the source's name)
A-375 [21] = assay: Antiproliferative activity against human A-375 cells assessed as cisplatin LD50 at 50 uM incubated for 48 hrs in presence of cisplatin by MTT assay; format: functional; conditions: read-out: LD50 (the source's name)
A-375 [22] = assay: Synergistic antiproliferative activity against human A-375 cells assessed as combination index at 50 uM incubated for 48 hrs in presence of 12.5 uM cisplatin by MTT assay; format: functional
A-375 [23] = assay: Synergistic antiproliferative activity against human A-375 cells assessed as combination index at 50 uM incubated for 48 hrs in presence of 6 uM cisplatin by MTT assay; format: functional
A549 [24] = assay: Antiproliferative activity against human A549 cells assessed as cisplatin LD50 at 50 uM incubated for 48 hrs in presence of cisplatin by MTT assay; format: functional; conditions: read-out: LD50 (the source's name)
A549 [25] = assay: Antiproliferative activity against human A549 cells assessed as cisplatin LD50 at 100 uM incubated for 48 hrs in presence of cisplatin by MTT assay; format: functional; conditions: read-out: LD50 (the source's name)
OVCAR-3 [26] = assay: Synergistic antiproliferative activity against human OVCAR-3 cells assessed as combination index at 50 uM incubated for 48 hrs in presence of 6 uM cisplatin by MTT assay; format: functional
A549 [27] = assay: Synergistic antiproliferative activity against human A549 cells assessed as combination index at 100 uM incubated for 48 hrs in presence of 6 uM cisplatin by MTT assay; format: functional
A-375 [28] = assay: Synergistic antiproliferative activity against human A-375 cells assessed as combination index at 35 uM incubated for 48 hrs in presence of 6 uM cisplatin by MTT assay; format: functional
DNA polymerase eta = biological target: T1, DNA polymerase eta (Homo sapiens, UniProt Q9Y253); assay: Inhibition of C-terminal 6xHis-tagged human DNA polymerase eta (1 to 511 residues) expressed in Escherichia coli BL21 DE3 using 5'-IRD700-GCAGGTCGACTCCAAAG-3' primer/ 5'-TCGGTACCGGGTTAGCCTTTGGAGTCGACCTGC-3' template as DNA substrate incubated for 60 mins in presence of Mg2+ by bromophenol blue staining based assay
T1 sequence (Q9Y253 whole entry): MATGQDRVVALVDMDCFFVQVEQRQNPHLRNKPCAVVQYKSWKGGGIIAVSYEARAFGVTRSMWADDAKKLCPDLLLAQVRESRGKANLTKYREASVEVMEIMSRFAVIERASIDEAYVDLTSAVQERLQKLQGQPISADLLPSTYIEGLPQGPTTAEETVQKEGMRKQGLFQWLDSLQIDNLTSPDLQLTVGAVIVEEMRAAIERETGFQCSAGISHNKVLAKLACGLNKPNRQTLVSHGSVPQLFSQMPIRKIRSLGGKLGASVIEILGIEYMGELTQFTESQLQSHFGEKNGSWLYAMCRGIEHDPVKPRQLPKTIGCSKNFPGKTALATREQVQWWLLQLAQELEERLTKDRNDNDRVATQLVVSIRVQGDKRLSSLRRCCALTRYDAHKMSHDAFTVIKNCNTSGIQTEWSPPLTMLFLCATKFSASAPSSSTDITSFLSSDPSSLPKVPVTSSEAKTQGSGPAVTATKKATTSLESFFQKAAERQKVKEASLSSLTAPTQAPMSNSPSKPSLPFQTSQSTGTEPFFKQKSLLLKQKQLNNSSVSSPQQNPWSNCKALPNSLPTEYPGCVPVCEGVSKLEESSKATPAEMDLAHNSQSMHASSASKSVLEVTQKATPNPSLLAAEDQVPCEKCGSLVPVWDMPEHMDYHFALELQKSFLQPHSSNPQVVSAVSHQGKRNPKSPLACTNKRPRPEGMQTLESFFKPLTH

[29] = Upregulation of phosphorylated gamma-H2AX level in human OVCAR-3 cells assessed as fold increase in activity at 20 uM incubated for 24 hrs by in presence of cisplatin by immunofluorescence based microscopy relative to cisplatin; format: functional
OVCAR-3 [30] = assay: Upregulation of phosphorylated gamma-H2AX level in human OVCAR-3 cells incubated for 48 hrs by Western blot analysis; format: functional, cell-based; conditions: dose 30.0 µM
OVCAR-3 [31] = assay: Synergistic antiproliferative activity against human OVCAR-3 cells assessed as combination index at 75 uM incubated for 48 hrs in presence of 12.5 uM cisplatin by MTT assay; format: functional
[32] = Metabolic stability in mouse liver microsome assessed as half life at 4.6 uM incubated upto 60 mins by LC/MS-MS analysis; format: ADME; conditions: liver microsomes
A549 [33] = assay: Antiproliferative activity against human A549 cells assessed as cisplatin LD50 at 20 uM incubated for 48 hrs in presence of cisplatin by MTT assay; format: functional; conditions: read-out: LD50 (the source's name)
A549 [34] = assay: Additive antiproliferative activity against human A549 cells assessed as combination index at 30 uM incubated for 48 hrs in presence of 6 uM cisplatin by MTT assay; format: functional
[35] = Antiproliferative activity against HEK293 cells incubated for 72 hrs by MTT assay; format: toxicity, cell-based; conditions: human, read-out: LD50
A-375 [36] = assay: Additive antiproliferative activity against human A-375 cells assessed as combination index at 10 uM incubated for 48 hrs in presence of 6 uM cisplatin by MTT assay; format: functional
A549 [37] = assay: Antagonistic antiproliferative activity against human A549 cells assessed as combination index at 20 uM incubated for 48 hrs in presence of 12.5 uM cisplatin by MTT assay; format: functional
A549 [38] = assay: Additive antiproliferative activity against human A549 cells assessed as combination index at 20 uM incubated for 48 hrs in presence of 6 uM cisplatin by MTT assay; format: functional
OVCAR-3 [39] = assay: Additive antiproliferative activity against human OVCAR-3 cells assessed as combination index at 10 uM incubated for 48 hrs in presence of 6 uM cisplatin by MTT assay; format: functional
OVCAR-3 [40] = assay: Antagonistic antiproliferative activity against human OVCAR-3 cells assessed as combination index at 10 uM incubated for 48 hrs in presence of 12.5 uM cisplatin by MTT assay; format: functional
A549 [41] = assay: Antiproliferative activity against human A549 cells assessed as cisplatin LD50 at 30 uM incubated for 48 hrs in presence of cisplatin by MTT assay; format: functional; conditions: read-out: LD50 (the source's name)
A-375 [42] = assay: Antiproliferative activity against human A-375 cells assessed as cisplatin LD50 at 10 uM incubated for 48 hrs in presence of cisplatin by MTT assay; format: functional; conditions: read-out: LD50 (the source's name)
HEK293 = assay: as §1; format: toxicity, cell-based; conditions: human, hek293, 48 h
A549 [43] = assay: Additive antiproliferative activity against human A549 cells assessed as combination index at 30 uM incubated for 48 hrs in presence of 12.5 uM cisplatin by MTT assay; format: functional
A-375 [44] = assay: Antiproliferative activity against human A-375 cells assessed as cisplatin LD50 at 20 uM incubated for 48 hrs in presence of cisplatin by MTT assay; format: functional; conditions: read-out: LD50 (the source's name)
OVCAR-3 [45] = assay: Antiproliferative activity against human OVCAR-3 cells assessed as cisplatin LD50 at 5 uM incubated for 48 hrs in presence of cisplatin by MTT assay; format: functional; conditions: read-out: LD50 (the source's name)
A-375 [46] = assay: Antiproliferative activity against human A-375 cells assessed as cisplatin LD50 at 30 uM incubated for 48 hrs in presence of cisplatin by MTT assay; format: functional; conditions: read-out: LD50 (the source's name)

IC50 [1]: 0.4 µM
Compound: O=C(O)C1=CC(=C(c2ccc(O)c(C(=O)O)c2)c2ccc(O)c(C(=O)O)c2)C=CC1=O [AURINTRICARBOXYLIC ACID]

Compound: O=c1c(OCCCO)c(-c2ccc(O)c(O)c2)oc2cc(O)cc(O)c12
CI (OVCAR-3 [2]): 0.78
solubility kinetic at 24 h, 250 µM [3]: 231 µM (≈ 83.2 µg/mL)
CC50 (OVCAR-3 [4]): > 100 µM
half-life at 2 µM [5]: 1.5 h
CI (OVCAR-3 [6]): 0.5
CC50 (A549 [7]): > 100 µM
Activity (A-375 [8]): Dose-Dependent Effect
CC50 (OVCAR-3 [9]): 4.8 µM
CC50 (OVCAR-3 [10]): 0.27 µM
CC50 (A-375 [11]): 2.6 µM
CI (A549 [12]): 0.78
CC50 (OVCAR-3 [13]): 2.8 µM
CI (A549 [14]): 0.58
Activity (A-375 [15]): Active
CC50 at 48 h [16]: > 100 µM
fold change (FC) [17]: >2
CI (A549 [18]): 0.8
CI (A-375 [19]): 0.78
CC50 (A-375 [20]): > 100 µM
CC50 (A-375 [21]): 1 µM
CI (A-375 [22]): 0.23
CI (A-375 [23]): 0.27
CC50 (A549 [24]): 19.7 µM
CC50 (A549 [25]): 9.4 µM
CI (OVCAR-3 [26]): 0.52
CI (A549 [27]): 0.6
CI (A-375 [28]): 0.66
IC50 (DNA polymerase eta): 14.7 µM
fold change (FC) [29]: >2
Activity (OVCAR-3 [30]): Dose-Dependent Effect
CI (OVCAR-3 [31]): 0.72
half-life at 4.6 µM [32]: > 1 h

Compound: COc1c(-c2ccc(O)c(O)c2)oc2cc(O)cc(O)c2c1=O [3-O-METHYLQUERCETIN]
CC50 (A549 [33]): 11.9 µM
CI (A549 [34]): 0.96
solubility kinetic at 24 h, 250 µM [3]: 229 µM (≈ 72.4 µg/mL)
CC50 (OVCAR-3 [4]): 5.2 µM
CC50 at 72 h [35]: 30.5 µM
CI (A-375 [36]): 0.96
CI (A549 [37]): 1.24
CI (A549 [38]): 1.03
half-life at 2 µM [5]: > 2 h
CC50 (A549 [7]): 60 µM
CC50 (OVCAR-3 [9]): 5.8 µM
CI (OVCAR-3 [39]): 1.15
CI (OVCAR-3 [40]): 2.33
CC50 (A549 [41]): 7.4 µM
CC50 (A-375 [42]): 2 µM
Activity (HEK293): Non-Toxic
fold change (FC) [17]: >2
CC50 (A-375 [20]): 29 µM
CI (A-375 [22]): 0.78
CI (A549 [43]): 0.94
CC50 (A-375 [44]): 0.5 µM
CC50 (OVCAR-3 [45]): 4.8 µM
CC50 (A-375 [46]): 0.4 µM
IC50 (DNA polymerase eta): 10.8 µM
fold change (FC) [29]: >2
half-life at 4.6 µM [32]: > 1 h

Reference: ChEMBL document CHEMBL5325401, “Computer-aided identification, synthesis, and biological evaluation of DNA polymerase η inhibitors for the treatment of cancer” (Eur J Med Chem, 2023)
